The target in assay [1] is T1, Orexin type 1 (OX1R) receptor (Homo sapiens, UniProt O43613).
T1 construct: expressed in transfected cells; host or cells: CHO cells (G418 selection)
T1 sequence (O43613 1-425): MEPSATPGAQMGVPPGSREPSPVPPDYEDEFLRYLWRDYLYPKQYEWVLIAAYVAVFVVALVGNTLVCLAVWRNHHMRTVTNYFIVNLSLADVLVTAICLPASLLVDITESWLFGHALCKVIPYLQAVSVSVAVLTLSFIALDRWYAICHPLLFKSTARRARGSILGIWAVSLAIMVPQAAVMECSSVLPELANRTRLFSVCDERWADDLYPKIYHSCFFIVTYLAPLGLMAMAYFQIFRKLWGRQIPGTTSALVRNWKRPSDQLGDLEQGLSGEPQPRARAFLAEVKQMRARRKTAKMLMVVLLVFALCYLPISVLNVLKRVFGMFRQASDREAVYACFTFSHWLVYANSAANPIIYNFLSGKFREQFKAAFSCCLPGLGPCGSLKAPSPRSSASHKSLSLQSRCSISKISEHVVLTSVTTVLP
In words: In vitro orexin antagonism assay: intracellular calcium measurement (FLIPR), orexin-A 3 nM as agonist. It counts as cell-based. Particulars: for IC50: first value of IC50/Kb cell; for Kb: second value of IC50/Kb cell; for inhibition at 1 µM: read-out: OX1R, % Inh. @ 1 uM. How it is done:
(§1) In Vitro Orexin Antagonism Measurement Assay: Intracellular Calcium Measurements:
(§2) Chinese hamster ovary (CHO) cells expressing the human […] and the human orexin-2 receptor, respectively, are grown in culture medium (Ham F-12 with L-Glutamine) containing 300 μg/mL G418, 100 U/mL penicillin, 100 μg/mL streptomycin and 10% heat inactivated fetal calf serum (FCS). The cells are seeded at 20,000 cells/well into 384-well black clear bottom sterile plates (Greiner). The seeded plates are incubated overnight at 37° C. in 5% 002. Human orexin-A as an agonist is prepared as 1 mM stock solution in MeOH: water (1:1), diluted in HBSS containing 0.1% bovine serum albumin (BSA), NaHCO3: 0.375 g/L and 20 mM HEPES for use in the assay at a final concentration of 3 nM.
(§3) Antagonists are prepared as 10 mM stock solution in DMSO, then diluted in 384-well plates using DMSO followed by a transfer of the dilutions into in HBSS containing 0.1% bovine serum albumin (BSA), NaHCO3: 0.375 g/L and 20 mM HEPES. On the day of the assay, 50 μL of staining buffer (HBSS containing 1% FCS, 20 mM HEPES, NaHCO3: 0.375 g/L, 5 mM probenecid (Sigma) and 3 μM of the fluorescent calcium indicator fluo-4 AM (1 mM stock solution in DMSO, containing 10% pluronic) is added to each well. The 384-well cell-plates are incubated for 50 min at 37° C. in 5% CO2 followed by equilibration at RT for 30 min before measurement.
(§4) Within the Fluorescent Imaging Plate Reader (FLIPR Tetra, Molecular Devices), antagonists are added to the plate in a volume of 10 μL/well, incubated for 120 min and finally 10 μL/well of agonist is added. Fluorescence is measured for each well at 1 second intervals, and the height of each fluorescence peak is compared to the height of the fluorescence peak induced by 3 nM orexin-A with vehicle in place of antagonist. The IC50 value (the concentration of compound needed to inhibit 50% of the agonistic response) is determined and may be normalized using the obtained IC50 value of an on-plate reference compound. Optimized conditions were achieved by adjustment of pipetting speed and cell splitting regime. The calculated IC50values may fluctuate depending on the daily cellular assay performance. Fluctuations of this kind are known to those skilled in the art.
For orientation: Calcium flux is commonly read through the fluorescence of an indicator in the cells.

Assay [2] addresses T2, human orexin-2 receptor (OX2R) (Homo sapiens, UniProt O43614).
T2 construct: expressed in transfected cells; host or cells: CHO cells (G418 selection)
T2 sequence (O43614 1-444): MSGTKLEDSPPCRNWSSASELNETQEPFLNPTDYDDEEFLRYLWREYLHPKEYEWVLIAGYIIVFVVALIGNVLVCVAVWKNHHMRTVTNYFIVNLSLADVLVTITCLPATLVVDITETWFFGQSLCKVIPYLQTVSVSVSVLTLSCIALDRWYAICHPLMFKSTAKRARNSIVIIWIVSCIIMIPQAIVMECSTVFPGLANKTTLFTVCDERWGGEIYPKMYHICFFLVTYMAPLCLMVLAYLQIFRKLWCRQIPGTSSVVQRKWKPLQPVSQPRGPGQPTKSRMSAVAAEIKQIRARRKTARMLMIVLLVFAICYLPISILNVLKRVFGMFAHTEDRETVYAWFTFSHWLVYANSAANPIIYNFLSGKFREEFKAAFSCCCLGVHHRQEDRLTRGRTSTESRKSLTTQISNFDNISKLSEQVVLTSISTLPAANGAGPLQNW
The description is as above. Format: cell-based. Conditions: for inhibition at 1 µM: read-out: OX2R, % Inh. @ 1 uM; for IC50: first value of IC50/Kb cell; for Kb: second value of IC50/Kb cell. Here is the method: Antagonistic activities on both orexin receptors have been measured for each example compound using the following procedure:
as §1, §2, §3
as §4, with “art. In the case where IC50values have been determined several times for the same compound, the geometric mean has been given.” for “art.”

Molecules are shown by their SMILES.

By IC50 is commonly meant the midpoint of a concentration-inhibition curve. With `O=C(c1c(-c2ccccc2)nn2c1COCC2)N1CCC[C@H]1CNc1ccc(C(F)(F)F)cn1` [Example 2], the IC50 in assay [1] was 120 nM.

As for `CCc1cnc(NC[C@@H]2[C@H](C)CCCN2C(=O)c2c(-c3ccccc3)nn3c2COCC3)nc1` [Example 5], in assay [1], the IC50 came out at 140 nM.

As usually defined, the Kb is the equilibrium dissociation constant of an antagonist, usually derived from a functional assay. As to `C[C@@H]1CCCN(C(=O)c2c(-c3ccccc3)nn3ccccc23)[C@@H]1CNc1ccc(C(F)(F)F)cn1` [Example 6], the Kb in assay [1] came out at 2 nM.

For the compound `CCc1cnc(NC[C@@H]2CCCN2C(=O)c2c(-c3ccccc3)nn3ccccc23)nc1` [Example 15], in assay [1], the IC50 worked out at 180 nM and the Kb worked out at 38 nM.

In the case of `O=C(c1c(-c2ccccc2)nc2ccccn12)N1CCC[C@H]1COc1ccc(C(F)(F)F)cn1` [Example 18], the IC50 in assay [1] was determined as 290 nM.

As to `C[C@@H]1CCCN(C(=O)c2c(-c3ccccc3)nn3ccccc23)[C@@H]1CNc1ncc(F)cn1` [Example 22], the inhibition at 1 µM in assay [2] was -3%. In addition, in assay [1], the IC50 stood at 10 nM, the inhibition at 1 µM was determined as 82.2% and the Kb was 2 nM.

On to `O=C(c1c(-c2ccccc2)nn2ccccc12)N1CCC[C@H]1CNc1ncc(F)cn1` [Example 23], for which the inhibition at 1 µM in assay [2] was 13.5%; in assay [1], 23%.

Turning to `O=C(c1c(-c2ccccc2)nn2ccccc12)N1CCCC[C@H]1CNc1ccc(C(F)(F)F)cn1` [Example 25], in assay [2], the IC50 is 74 nM, the inhibition at 1 µM was determined as 72% and the Kb was found to be 10 nM. Moreover, in assay [1], the half-maximal inhibitory concentration (IC50) was found to be 17 nM, the inhibition at 1 µM amounted to 99.8% and the Kb was 4 nM.

As to `O=C(c1c(-c2ccccc2)nc2ccccn12)N1CCCC[C@H]1CNc1ccc(C(F)(F)F)cn1` [Example 26], the inhibition at 1 µM in assay [2] was determined as 39.4%. Further, in assay [1], the IC50 was 14 nM, the inhibition at 1 µM turned out to be 99.5% and the Kb is 3 nM.

On to `O=C(c1c(-c2ccccc2)nn2c1COCC2)N1CCCC[C@H]1CNc1ccc(C(F)(F)F)cn1` [Example 27], for which, in assay [2], the inhibition at 1 µM turned out to be 50.4%. Besides, in assay [1], the IC50 is 9 nM, the inhibition at 1 µM was 99% and the Kb is 2 nM.

Take `O=C(c1nn2ccccc2c1-c1ccccc1)N1CCC[C@H]1COc1ccc(C(F)(F)F)cn1` [Example 28]: the inhibition at 1 µM in assay [2] is 52.5%. Also, in assay [1], the IC50 was 4 nM, the inhibition at 1 µM stood at 98.4% and the Kb stood at 1 nM.

On to `O=C(c1nn2ccccc2c1-c1ccccc1)N1CCC[C@H]1CNc1ccc(C(F)(F)F)cn1` [Example 29], for which, in assay [2], the IC50 was determined as 35 nM, the inhibition at 1 µM came out at 84.1% and the Kb turned out to be 5 nM. Moreover, in assay [1], the IC50 worked out at 5 nM, the inhibition at 1 µM is 99.5% and the Kb is 1 nM.

`O=C(c1c(-c2ccccc2)nn2ccccc12)N1CCC[C@H]1CNc1ccc(F)cn1` [Example 30]: the inhibition at 1 µM was 14.8% in assay [2] and 32.5% in assay [1].

As to `O=C(c1c(-c2ccccc2)nc2ncccn12)N1CCC[C@H]1CNc1ccc(F)cn1` [Example 31], the inhibition at 1 µM in assay [2] is -3.4%; in assay [1], 4.7%.

With `O=C(c1c(-c2ccccc2)nc2ncccn12)N1CCC[C@H]1CNc1ccc(C(F)(F)F)cn1` [Example 32], the inhibition at 1 µM in assay [2] stood at 3.6%; in assay [1], 19.7%.

On to `O=C(c1c(-c2ccccc2)nc2ccccn12)N1CCC[C@H]1CNc1ccc(F)cn1` [Example 33], for which the inhibition at 1 µM came out at 0.7% in assay [2] and 4.8% in assay [1].

With `O=C(c1c(-c2ccccc2)nc2ncccn12)N1CCC[C@H]1Cn1ccc(-c2ccccc2)n1` [Example 35], the inhibition at 1 µM was determined as 23.7% in assay [2] and 54.8% in assay [1].

With `O=C(c1c(-c2ccccc2)nc2cnccn12)N1CCC[C@H]1CNc1ccc(C(F)(F)F)cn1` [Example 36], the inhibition at 1 µM was 14.7% in assay [2] and 53.7% in assay [1].

For `O=C(c1c(-c2ccccc2)nn2ccccc12)N1CCC[C@H]1COc1ccc(Br)nc1` [Example 37], the inhibition at 1 µM in assay [2] amounted to 10.4%; in assay [1], 25.4%.

`O=C(c1c(-c2ccccc2)nc2ccccn12)N1CCC[C@H]1COc1ccc(Br)nc1` [Example 38]: the results for the inhibition at 1 µM in assay [2] and in assay [1] were -6.1% and 8.2%, respectively.

In the case of `O=C(c1c(-c2ccccc2)nc2cnccn12)N1CCC[C@H]1COc1ccc(C(F)(F)F)nc1` [Example 39], the inhibition at 1 µM in assay [2] turned out to be 7.9%; in assay [1], 39.4%.

Regarding `O=C(c1c(-c2ccc(F)cc2)nn2ccccc12)N1CCC[C@H]1CNc1ccc(F)cn1` [Example 41], the figures for the inhibition at 1 µM in assay [2] and in assay [1] were 3.2% and 45.6%, respectively.

For `O=C(c1c(-c2ccc(F)cc2)nn2ccccc12)N1CCC[C@H]1CNc1ccc(C(F)(F)F)cn1` [Example 42], the inhibition at 1 µM in assay [2] is 39.4%. Besides, in assay [1], the IC50 came to 12 nM, the inhibition at 1 µM came out at 98.2% and the Kb amounted to 3 nM.

For `O=C(c1c(-c2ccc(F)cc2)nn2ccccc12)N1CCC[C@H]1COc1ccc(C(F)(F)F)cn1` [Example 43], the inhibition at 1 µM in assay [2] was 28.3%. In assay [1], the concentration for half-maximal inhibition (IC50) came to 9 nM, the inhibition at 1 µM amounted to 93.1% and the Kb turned out to be 2 nM.

On to `O=C(c1c(-c2ccccc2)nc2ccccn12)N1CCCC[C@H]1COc1ccc(C(F)(F)F)cn1` [Example 45], for which, in assay [2], the inhibition at 1 µM came out at 38.8%. In addition, in assay [1], the IC50 was found to be 4 nM, the inhibition at 1 µM amounted to 98.7% and the antagonist dissociation constant (Kb) turned out to be 0.9 nM.

`O=C(c1c(-c2ccccc2)nc2ncccn12)N1CCCC[C@H]1COc1ccc(C(F)(F)F)cn1` [Example 47]: the inhibition at 1 µM turned out to be 1.2% in assay [2] and 59.5% in assay [1].

Regarding `O=C(c1c(-c2ccccc2)nc2ncccn12)N1CCC[C@H]1COc1ccc(C(F)(F)F)cn1` [Example 48], the inhibition at 1 µM in assay [2] is -1.1%; in assay [1], 18.9%.

With `O=C(c1c(-c2ccccc2)nc2ccc(F)cn12)N1CCC[C@H]1COc1ccc(C(F)(F)F)cn1` [Example 51], the inhibition at 1 µM in assay [2] turned out to be 46.5%. In assay [1], the IC50 stood at 80 nM, the inhibition at 1 µM worked out at 88.1% and the Kb was 17 nM.

With `O=C(c1c(-c2ccccc2)nc2cc(F)ccn12)N1CCC[C@H]1COc1ccc(C(F)(F)F)cn1` [Example 52], the inhibition at 1 µM in assay [2] is 43.3%. In assay [1], the IC50 stood at 327 nM, the inhibition at 1 µM worked out at 79.2% and the Kb was 69 nM.

Values taken from patent US20260070922A1, “PYRAZOLE AND IMIDAZOLE DERIVATIVES AS DUAL OREXIN AND KAPPA-OPIOID RECEPTORS MODULATORS COMPOSITION, METHODS FOR TREATING NEUROLOGICAL AND PSYCHIATRIC DISORDERS” (HAGER BIOSCIENCES, LLC, priority 2022, published 2026).
